The source of these data is US20160102052A1, “Use of Cysteamine in Treating Infections caused by Yeasts/Moulds” (priority 2014, published 2016).

In general, MIC50 refers to an inhibitory concentration at the 50% level, which refers to growth in some studies and to a panel of isolates in others. As a reminder, the MIC80 is an inhibitory concentration at the 80% level, which refers to growth in some studies and to a panel of isolates in others.

What all share (assay): MIC of clinical antifungals, CLSI M38-A2 broth microdilution
What all share (format): cell-based
On the technique in general: In broth dilution the organism is exposed to a series of concentrations in liquid medium.

One assay has as its system Candida krusei ATCC 6258. The note with it: Pichia kudriavzevii; for MIC50 / MIC80: ATCC6258, RPMI-1640; for MIC: ATCC6258, RPMI-1640, read-out: MIC100. How it is done: (§1) Two Candida spp. strains (C. krusei ATCC6258 & C. parapsilosis ATCC22019) and Exophiala jeanselmei reference strain NCPF2377 were also tested. These acted as quality control strains. Flat-bottomed Nunc Plates were prepared containing a serial doubling dilution of antifungals at 2× final concentration. […] These were incubated at 35° C. and read at 24 h and 48 h (Candida spp.) or 120 h (Exophiala spp.) on a BioTek plate reader at 530 nm. • 7. Culture of Candida spp. grown on Sabouraud dextrose agar slope overnight at 30° C. • 8. Exophiala cultures grown on potato dextrose agar slope for 6 days at 35° C. • 9. Cultures were removed from incubator and 2 ml sterile 0.15M NaCl was added to the overnight culture and spore and hyphal suspensions were harvested from the surface of the agar and transferred to a sterile plastic bijou tube. • a. Exophiala spp. cultures were allowed to rest for up to 10 min, allowing hyphae to settle to the bottom. The top layers of spores were transferred to a sterile plastic bijou tube. • 10. […] This is continued to A12 where 100 μl is removed and discarded. • f. This dilution series was repeated in rows B-D for the remaining 3 cultures • g. 0.5 McFarland Standard added to wells E1-E3 • h. Plate read at OD530 on BioTek. • i. Concentration of cells required will be the one that is the equivalent to the 0.5 McFarland Standard • 11. […] • 7. The highest final concentration on the plate will be as described in layouts at the end of the protocol. […] Wells A1-A3 and A7-A9 are prepared by the addition of 200 μl highest concentration of compound to the wells. • 10. All other wells contain 100 μl sterile dH2O. • 11. Serial dilutions are carried out from A1-A3 to B1-B3 whereby 100 μl is removed from A1-A3 and placed into B1-B3 and mixed well by pipetting. Then take 100 μl B1-B3 and place in C1-C3 and mix well. Take 100 μl from C1-C3 and add to D1-D3 and mix well. […] At H1-[…] μl is removed and added to A4-A6. The dilution series is carried down the plate in the same manner to wells G4-G6 where a final 100 μl is removed and discarded. H4-H6 contain water alone and will be untreated controls. • 12. The same procedure is repeated for the wells in columns A7-A9 and A10-A12. See plate layout at bottom of page. Inoculating Plates with Candida spp./Exophiala spp. • 5. […] Plates are read in the BioTek at OD530 nm. • 7. Plates are then placed in a plastic box which contains either a Petri dish of water. The box is sealed and incubated at 35° C. (Exophiala spp.) or 30° C. (Candida spp.). The presence of the water in the dish or on the tissue provides and environment of relatively high humidity. • 8. The OD530 of the Candida spp. plates are read after 24 h and 48 h, while the slower growing Exophiala spp. plates are read after 96 h and 120 h. • 9. Raw BioTek data is transformed using Gen5 software and represented graphically using GraphPad Prism 4 software and MICs determined.

Assay [1] deals with Candida parapsilosis ATCC 22019. To be noted: Lodderomyces parapsilosis; for MIC50 / MIC80: ATCC22019, RPMI-1640; for MIC: ATCC22019, RPMI-1640, read-out: MIC100. How it is done:
as §1

Assay [2] concerns Exophiala dermatitidis CA01. To be noted: RPMI-1640, 35° C.; for MIC: read-out: MIC100. The procedure:
as §1

Assay [3] has as its system Exophiala jeanselmei NCPF 2377. To be noted: NCPF2377, RPMI-1640, 35° C.; for MIC: read-out: MIC100. The procedure:
as §1

Consider `CC[C@H](C)C[C@H](C)CCCCCCCCC(=O)N[C@H]1C[C@@H](O)[C@@H](NCCN)NC(=O)[C@@H]2[C@@H](O)CCN2C(=O)[C@H]([C@H](O)CCN)NC(=O)[C@H]([C@H](O)[C@@H](O)c2ccc(O)cc2)NC(=O)[C@@H]2C[C@@H](O)CN2C(=O)[C@H]([C@@H](C)O)NC1=O` [Caspofungin], for which the MIC50 in the assay on Candida krusei ATCC 6258 was found to be 0.5 µg/mL; in assay [1], 1 µg/mL; in assay [2], 16 µg/mL; in assay [3], 0.125 µg/mL. Besides, the MIC80 in the assay with Candida krusei ATCC 6258 stood at 1 µg/mL; in assay [1] it was 2 µg/mL; in assay [2], 32 µg/mL; in assay [3], 64 µg/mL. In addition, the MIC is 1 µg/mL in the assay with Candida krusei ATCC 6258, 64 µg/mL in assay [1], 32 µg/mL in assay [2] and > 64 µg/mL in assay [3].
For `OC(Cn1cncn1)(Cn1cncn1)c1ccc(F)cc1F` [Fluconazole], the MIC50 in the assay with Candida krusei ATCC 6258 came out at 31.2 µg/mL; in assay [1] it was 0.5 µg/mL; in assay [2] it was 250 µg/mL; in assay [3], 250 µg/mL. Further, the MIC80 in the assay on Candida krusei ATCC 6258 turned out to be 62.5 µg/mL; in assay [1] it was 1 µg/mL; in assay [2], 500 µg/mL; in assay [3], 500 µg/mL. In addition, the MIC with Candida krusei ATCC 6258 is 62.5 µg/mL; in assay [1], 3.9 µg/mL; in assay [2], 500 µg/mL; in assay [3], 1000 µg/mL.
For the molecule `CCC(C)n1ncn(-c2ccc(N3CCN(c4ccc(OCC5COC(Cn6cncn6)(c6ccc(Cl)cc6Cl)O5)cc4)CC3)cc2)c1=O` (stereo not drawn) [Itraconazole], the MIC50 in the assay with Candida krusei ATCC 6258 was 0.004 µg/mL; in assay [1], 0.008 µg/mL; in assay [2] it was 2 µg/mL; in assay [3], 0.125 µg/mL. Moreover, the MIC80 is 0.125 µg/mL in the assay on Candida krusei ATCC 6258, 0.016 µg/mL in assay [1], > 32 µg/mL in assay [2] and 0.25 µg/mL in assay [3]. The MIC was 0.25 µg/mL with Candida krusei ATCC 6258, 0.125 µg/mL in assay [1], > 32 µg/mL in assay [2] and 0.25 µg/mL in assay [3].
